# Measured values from patent publication US20260137701A1, “CHOLESTENOIC ACID (CA) AND A SULFATED DERIVATIVE THEREOF, 3[BETA]-SULFATE-5-CHOLESTENOIC ACID (CA3S), AS ENDOGENOUS EPIGENETIC REGULATORS” (priority 2022, published 2026).
# Assays:
# [1] = tested on: HepG-2 cells; assay: LC-MS/MS determination of CA levels in total cellular and nuclear extracts; format: in vitro ADME, human; settings: addition of 20 μM CA
# Method: HepG-2 cells, 5,000 cells/cm^2, were cultured in DMEM (HG, 10% FBS) medium for 3 days, and then treated with 20 μM of CA for 0, 3, 6, 12, and 24 hours. After treatment, the cells were washed twice with cold PBS then harvested with 1 ml PBS. For total cell extraction, the cells were collected by centrifuge at 1,000 rpm for 5 min. For nuclei extraction, the nuclear fractions were extracted according to the manufacture's instructions for NE-PER™ Nuclear and Cytoplasmic Extraction Reagents (Thermo Scientific, Rockford, IL). Total proteins in the cell and nuclear fractions were digested with proteinase K (2 mg/ml), incubated at 50° C. with shaking for 3 hours. The total lipids in the total cell and nuclear fractions were extracted with 10 volumes of chloroform:methanol 1:1, vortexed, and sonicated for 30 mins. The extracts were centrifuged at 1,000 rpm for 5 min, the supernatants were dried up by stream nitrogen, then dissolved with 200 μl of methanol, 2 μl of the extracts were used for the CA analysis by LC-MS/MS system as below.
# Shimadzu LCMS-8600 CL LC-MS system equipped with electrospray ionization (ESI) were used to determine the CA levels. Data were collected and processed using Shimadzu Lab solutions software. Hypersil Gold™ C18 (50 mm×2.1 mm inner diameter, particle size 2.6 μm, Thermo Scientific) was maintained at 40° C. during the analysis. […]
# [2] = tested on: AMPK; assay: Western blot analysis of AMPK protein; format: cell-based, human; settings: HepG-2, high glucose media, 20 μM CA, 24 hours
# Method: Specific proteins were analyzed by western blot. The proteins were extracted using M-PER™ Mammalian Protein Extraction Reagents (Fisher Scientific). For each sample, 20 μg of proteins were separated on 8%-12% SDS polyacrylamide gel electrophoresis (SDS-PAGE) gels. Electrophoresis was performed at 100V for 15 min and 200V for another 25 min in a Bio-Rad mini-gel system. After electrophoresis, samples were transferred onto a polyvinylidene difluoride (PVDF) membrane at 30V for 50 min. The specific proteins on the membrane were detected by incubation with anti-AMPKα1/2 (Santa Cruz Biotechnologies) primary antibody at 4° C. overnight, followed by further incubation with an appropriate horseradish peroxidase (HRP)-conjugated secondary antibody (Bio-Rad) at room temperature for 1 hr. Each positive band was quantified by Advanced Image Data Analyzer (Aida, Straubenhardt, Germany).
# [3] = tested on: HepG-2 cells; assay: RT-qPCR of genes of lipid metabolism and calcium signaling; format: cell-based, human; settings: concentration and time dependent
# Method: After culturing HepG-2 cells in DMEM medium with HG for 72 hours followed by treating with 20 μM CA for 0, 3, 6, 12, and 24 hours, genomic DNA from 5×10^7 cells were extracted using QIAamp® DNA Mini Kit (QIAGEN, Hilden, Germany). Each sample, 6 μg, was sent to CD Genomics Co., Ltd (New York, USA) for analysis of WGBS. Total RNA was isolated using the Promega SV total RNA isolation system (Madison, WI, USA) with DNase treatment. Each sample, 2 μg, were sent to CD Genomics Co., Ltd (New York, USA) for analysis of RNA sequencing. The same samples, 2 μg, was used for the first-strand cDNA synthesis as recommended by the manufacturer (Invitrogen, Carlsbad, CA). RT-qPCR was performed using SYBR Green as the indicator on ABI 7500 Fast Real-Time PCR System (Applied Biosystems, Foster City, CA). Amplifications of j-actin or GAPDH were used as internal controls. Relative messenger RNA (mRNA) expression was quantified with the comparative cycle threshold (Ct) method using a sutiable primer set and was expressed as 2-ΔΔCt as described previously.
# [4] = tested on: HepG-2 cells; assay: HepG-2 cell death; format: cell-based, human
# [5] = tested on: Hep G2 cells; format: in vitro ADME, human; settings: human, 24 h
# Excerpt: Mitochondrial oxysterols, including cholestenoic acid (CA), 25-hydroxycholesterol (25HC), and 27-hydroxycholesterol (27HC), are potent regulators involved in important biological events such as lipid metabolism and inflammatory responses. However, their intracellular catabolic pathways have not been fully explored. In this study, we investigated the metabolic pathways of these oxysterols and their roles in the communication between hepatocytes and macrophages.
structure (smiles),measurement,setting,value
"CC(CCC[C@@H](C)[C@H]1CC[C@H]2[C@@H]3CC=C4C[C@@H](O)CC[C@]4(C)[C@H]3CC[C@]12C)C(=O)O (stereo partly drawn) [CA, 3β-hydroxy-5-cholestenoic acid]",increase of CA in cellular nuclei,[1]; 6 hours,4 fold
same,increase of intracellular CA levels,[1]; 12 hours,85 fold
same,protein levels of AMPK,[2],significantly increased
same,levels of mRNA encoding FAS,[3]; 0-20 μM CA 6 hours,decreased
same,levels of mRNA encoding HMGR,[3]; 0-20 μM CA 6 hours,decreased
same,levels of mRNA encoding PCSK9,[3]; 0-20 μM CA 6 hours,decreased
same,expression of CACNA1D,[3],up-regulated
same,expression of CACNA1H,[3],up-regulated
same,expression of CAMK2B,[3],up-regulated
same,HepG-2 cell death,[4],induces HepG-2 cell death
same,maximum of novel molecular ion m/z 495 (CA3S) formed from CA,[5],90%
